Data as given in PMC9856672, “SGC-CAMKK2-1: A Chemical Probe for CAMKK2” (Cells, 2023).

What was measured:
[1] = target: T1, PAK2 (Homo sapiens, UniProt Q13177); assay: KINOMEscan at 1 μM, PAK2; type: binding; settings: 1000 nM, read-out: Percent Control
T1 construct: purchased Eurofins DiscoverX KINOMEscan
Description: (§1) Supplement cells-12-00287-s001.zip/File S2. KinomeScan data for the CAMKK2 probe and negative control.xlsx, sheet "SGC-CAMKK2-1N" | column: Percent Control

[2] = target: T2, SNARK (Homo sapiens, UniProt Q9H093); assay: KINOMEscan at 1 μM, SNARK; type: binding; settings: 1000 nM, read-out: Percent Control
T2 construct: purchased Eurofins DiscoverX KINOMEscan
Description: as §1

[3] = target: T3, PIP5K1C (Homo sapiens, UniProt O60331); assay: KINOMEscan binding assay at 1 μM, PIP5K1C; settings: Compound Concentration 1000 nM; read-out: Percent Control
T3 construct: purchased Eurofins DiscoverX KINOMEscan
Description: as §1

[4] = target: T4, FES (Homo sapiens, UniProt P07332); assay: KINOMEscan at 1 μM, FES; type: binding; settings: 1000 nM, read-out: Percent Control
T4 construct: purchased Eurofins DiscoverX KINOMEscan
Description: as §1

[5] = target: T5, CAMK1B (Homo sapiens, UniProt Q6P2M8); assay: KINOMEscan at 1 μM, CAMK1B; type: binding; settings: 1000 nM, read-out: Percent Control
T5 construct: purchased Eurofins DiscoverX KINOMEscan
Description: as §1

[6] = target: T6, ASK1 (Homo sapiens, UniProt Q99683); assay: KINOMEscan at 1 μM, ASK1; type: binding; settings: 1000 nM, read-out: Percent Control
T6 construct: purchased Eurofins DiscoverX KINOMEscan
Description: as §1

[7] = target: T7, DLK (Homo sapiens, UniProt Q12852); assay: KINOMEscan at 1 μM, DLK; type: binding; settings: 1000 nM, read-out: Percent Control
T7 construct: purchased Eurofins DiscoverX KINOMEscan
Description: as §1

[8] = target: T8, FER (Homo sapiens, UniProt P16591); assay: KINOMEscan binding assay at 1 μM, FER; settings: Compound Concentration 1000 nM; read-out: Percent Control
T8 construct: purchased Eurofins DiscoverX KINOMEscan
Description: as §1

[9] = target: T9, RSK1(Kin.Dom.2-C-terminal) (Homo sapiens, UniProt Q15418); assay: KINOMEscan at 1 μM, RSK1(Kin.Dom.2-C-terminal); type: binding; settings: 1000 nM, read-out: Percent Control
T9 construct: RSK1(Kin.Dom.2-C-terminal); purchased Eurofins DiscoverX KINOMEscan
Description: as §1

[10] = target: T10, MEK5 (Homo sapiens, UniProt Q13163); assay: KINOMEscan at 1 μM, MEK5; type: binding; settings: 1000 nM, read-out: Percent Control
T10 construct: purchased Eurofins DiscoverX KINOMEscan
Description: as §1

[11] = target: T11, LZK (Homo sapiens, UniProt O43283); assay: KINOMEscan at 1 μM, LZK; type: binding; settings: 1000 nM, read-out: Percent Control
T11 construct: purchased Eurofins DiscoverX KINOMEscan
Description: as §1

[12] = target: T12, CSNK1G1 (Homo sapiens, UniProt Q9HCP0); assay: KINOMEscan at 1 μM, CSNK1G1; type: binding; settings: 1000 nM, read-out: Percent Control
T12 construct: purchased Eurofins DiscoverX KINOMEscan
Description: as §1

[13] = target: T13, LRRK2(G2019S) (Homo sapiens, UniProt Q5S007, G2019S); assay: KINOMEscan at 1 μM, LRRK2(G2019S); type: binding; settings: 1000 nM, read-out: Percent Control
T13 construct: purchased Eurofins DiscoverX KINOMEscan
Description: as §1

[14] = target: T14, SRC (Homo sapiens, UniProt P12931); assay: KINOMEscan at 1 μM, SRC; type: binding; settings: 1000 nM, read-out: Percent Control
T14 construct: purchased Eurofins DiscoverX KINOMEscan
Description: as §1

[15] = target: T15, p38-beta (Homo sapiens, UniProt Q15759); assay: KINOMEscan binding assay at 1 μM, p38-beta; settings: Compound Concentration 1000 nM; read-out: Percent Control
T15 construct: purchased Eurofins DiscoverX KINOMEscan
Description: as §1

[16] = target: T16, PHKG2 (Homo sapiens, UniProt P15735); assay: DiscoverX KINOMEscan binding assay at 1 μM, PHKG2; settings: Compound Concentration 1000 nM, read-out: Percent Control
T16 construct: purchased Eurofins DiscoverX KINOMEscan
Description: (§2) Supplement cells-12-00287-s001.zip/File S2. KinomeScan data for the CAMKK2 probe and negative control.xlsx, sheet "SGC-CAMKK2-1" | column: Percent Control

[17] = target: T17, SLK (Homo sapiens, UniProt Q9H2G2); assay: KINOMEscan 1 μM, SLK; type: binding; settings: 1000 nM; Entrez SLK; read-out: Percent Control
T17 construct: purchased Eurofins DiscoverX KINOMEscan
Description: as §2

[18] = target: T18, CDK9 (Homo sapiens, UniProt P50750); assay: KINOMEscan 1 μM, CDK9; type: binding; settings: 1000 nM; Entrez CDK9; read-out: Percent Control
T18 construct: purchased Eurofins DiscoverX KINOMEscan
Description: as §2

[19] = target: T19, PKMYT1 (Homo sapiens, UniProt Q99640); assay: KINOMEscan 1 μM, PKMYT1; type: binding; settings: 1000 nM; Entrez PKMYT1; read-out: Percent Control
T19 construct: purchased Eurofins DiscoverX KINOMEscan
Description: as §2

[20] = target: T20, EGFR(E746-A750del) (Homo sapiens, UniProt P00533, DEL746-750); assay: KINOMEscan 1 μM, EGFR(E746-A750del); type: binding; settings: 1000 nM; Entrez EGFR; read-out: Percent Control
T20 construct: purchased Eurofins DiscoverX KINOMEscan
Description: as §2

[21] = target: T21, NEK1 (Homo sapiens, UniProt Q96PY6); assay: KINOMEscan 1 μM, NEK1; type: binding; settings: 1000 nM; Entrez NEK1; read-out: Percent Control
T21 construct: purchased Eurofins DiscoverX KINOMEscan
Description: as §2

[22] = target: T22, STK39 (Homo sapiens, UniProt Q9UEW8); assay: KINOMEscan 1 μM, STK39; type: binding; settings: 1000 nM; Entrez STK39; read-out: Percent Control
T22 construct: purchased Eurofins DiscoverX KINOMEscan
Description: as §2

[23] = target: T23, VEGFR2 (Homo sapiens, UniProt P35968); assay: DiscoverX KINOMEscan binding assay at 1 μM, VEGFR2; settings: VEGFR2 (KDR); Compound Concentration 1000 nM; read-out: Percent Control
T23 construct: purchased Eurofins DiscoverX KINOMEscan
Description: as §2

[24] = target: T24, FRK (Homo sapiens, UniProt P42685); assay: KINOMEscan 1 μM, FRK; type: binding; settings: 1000 nM; Entrez FRK; read-out: Percent Control
T24 construct: purchased Eurofins DiscoverX KINOMEscan
Description: as §2

[25] = target: T25, ERK5 (Homo sapiens, UniProt Q13164); assay: KINOMEscan 1 μM, ERK5; type: binding; settings: 1000 nM; Entrez MAPK7; read-out: Percent Control
T25 construct: purchased Eurofins DiscoverX KINOMEscan
Description: as §2

[26] = target: T26, RPS6KA4(Kin.Dom.1-N-terminal) (Homo sapiens, UniProt O75676); assay: DiscoverX KINOMEscan binding assay at 1 μM, RPS6KA4(Kin.Dom.1-N-terminal); settings: Compound Concentration 1000 nM, read-out: Percent Control
T26 construct: RPS6KA4(Kin.Dom.1-N-terminal); purchased Eurofins DiscoverX KINOMEscan
Description: as §2

[27] = target: T27, MAP3K4 (Homo sapiens, UniProt Q9Y6R4); assay: KINOMEscan 1 μM, MAP3K4; type: binding; settings: 1000 nM; Entrez MAP3K4; read-out: Percent Control
T27 construct: purchased Eurofins DiscoverX KINOMEscan
Description: as §2

[28] = target: T28, INSR (Homo sapiens, UniProt P06213); assay: KINOMEscan 1 μM, INSR; type: binding; settings: 1000 nM; Entrez INSR; read-out: Percent Control
T28 construct: purchased Eurofins DiscoverX KINOMEscan
Description: as §2

[29] = target: T29, ULK3 (Homo sapiens, UniProt Q6PHR2); assay: DiscoverX KINOMEscan binding assay at 1 μM, ULK3; settings: Compound Concentration 1000 nM, read-out: Percent Control
T29 construct: purchased Eurofins DiscoverX KINOMEscan
Description: as §2

[30] = target: T30, NLK (Homo sapiens, UniProt Q9UBE8); assay: KINOMEscan 1 μM, NLK; type: binding; settings: 1000 nM; Entrez NLK; read-out: Percent Control
T30 construct: purchased Eurofins DiscoverX KINOMEscan
Description: as §2

[31] = target: T31, TYRO3 (Homo sapiens, UniProt Q06418); assay: DiscoverX KINOMEscan binding assay at 1 μM, TYRO3; settings: Compound Concentration 1000 nM, read-out: Percent Control
T31 construct: purchased Eurofins DiscoverX KINOMEscan
Description: as §2

[32] = target: T32, FLT3(D835H) (Homo sapiens, UniProt P36888, D835H); assay: KINOMEscan 1 μM, FLT3(D835H); type: binding; settings: 1000 nM; Entrez FLT3; read-out: Percent Control
T32 construct: purchased Eurofins DiscoverX KINOMEscan
Description: as §2

[33] = target: T33, NEK11 (Homo sapiens, UniProt Q8NG66); assay: KINOMEscan 1 μM, NEK11; type: binding; settings: 1000 nM; Entrez NEK11; read-out: Percent Control
T33 construct: purchased Eurofins DiscoverX KINOMEscan
Description: as §2

T8 sequence (P16591 whole entry): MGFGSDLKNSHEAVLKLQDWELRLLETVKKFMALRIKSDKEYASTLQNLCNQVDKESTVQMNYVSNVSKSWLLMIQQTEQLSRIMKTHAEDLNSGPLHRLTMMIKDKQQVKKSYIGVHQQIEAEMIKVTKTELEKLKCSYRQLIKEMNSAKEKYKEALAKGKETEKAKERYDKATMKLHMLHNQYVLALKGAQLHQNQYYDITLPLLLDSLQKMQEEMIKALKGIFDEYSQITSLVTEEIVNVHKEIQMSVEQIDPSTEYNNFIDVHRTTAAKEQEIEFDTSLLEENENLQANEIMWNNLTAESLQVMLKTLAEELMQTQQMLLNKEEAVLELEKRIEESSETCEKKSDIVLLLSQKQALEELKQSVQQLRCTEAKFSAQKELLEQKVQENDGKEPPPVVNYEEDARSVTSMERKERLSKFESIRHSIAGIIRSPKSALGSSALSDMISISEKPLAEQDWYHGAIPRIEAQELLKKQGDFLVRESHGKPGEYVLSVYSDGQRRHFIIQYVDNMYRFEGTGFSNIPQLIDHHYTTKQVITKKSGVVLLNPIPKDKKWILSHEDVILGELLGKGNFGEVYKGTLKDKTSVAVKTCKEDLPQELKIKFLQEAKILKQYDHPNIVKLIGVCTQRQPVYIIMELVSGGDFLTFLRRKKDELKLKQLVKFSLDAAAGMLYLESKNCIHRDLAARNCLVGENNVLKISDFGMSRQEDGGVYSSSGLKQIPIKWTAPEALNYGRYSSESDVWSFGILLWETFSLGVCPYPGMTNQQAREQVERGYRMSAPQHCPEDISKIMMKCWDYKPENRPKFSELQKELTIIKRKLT
T28 sequence (P06213 28-1382): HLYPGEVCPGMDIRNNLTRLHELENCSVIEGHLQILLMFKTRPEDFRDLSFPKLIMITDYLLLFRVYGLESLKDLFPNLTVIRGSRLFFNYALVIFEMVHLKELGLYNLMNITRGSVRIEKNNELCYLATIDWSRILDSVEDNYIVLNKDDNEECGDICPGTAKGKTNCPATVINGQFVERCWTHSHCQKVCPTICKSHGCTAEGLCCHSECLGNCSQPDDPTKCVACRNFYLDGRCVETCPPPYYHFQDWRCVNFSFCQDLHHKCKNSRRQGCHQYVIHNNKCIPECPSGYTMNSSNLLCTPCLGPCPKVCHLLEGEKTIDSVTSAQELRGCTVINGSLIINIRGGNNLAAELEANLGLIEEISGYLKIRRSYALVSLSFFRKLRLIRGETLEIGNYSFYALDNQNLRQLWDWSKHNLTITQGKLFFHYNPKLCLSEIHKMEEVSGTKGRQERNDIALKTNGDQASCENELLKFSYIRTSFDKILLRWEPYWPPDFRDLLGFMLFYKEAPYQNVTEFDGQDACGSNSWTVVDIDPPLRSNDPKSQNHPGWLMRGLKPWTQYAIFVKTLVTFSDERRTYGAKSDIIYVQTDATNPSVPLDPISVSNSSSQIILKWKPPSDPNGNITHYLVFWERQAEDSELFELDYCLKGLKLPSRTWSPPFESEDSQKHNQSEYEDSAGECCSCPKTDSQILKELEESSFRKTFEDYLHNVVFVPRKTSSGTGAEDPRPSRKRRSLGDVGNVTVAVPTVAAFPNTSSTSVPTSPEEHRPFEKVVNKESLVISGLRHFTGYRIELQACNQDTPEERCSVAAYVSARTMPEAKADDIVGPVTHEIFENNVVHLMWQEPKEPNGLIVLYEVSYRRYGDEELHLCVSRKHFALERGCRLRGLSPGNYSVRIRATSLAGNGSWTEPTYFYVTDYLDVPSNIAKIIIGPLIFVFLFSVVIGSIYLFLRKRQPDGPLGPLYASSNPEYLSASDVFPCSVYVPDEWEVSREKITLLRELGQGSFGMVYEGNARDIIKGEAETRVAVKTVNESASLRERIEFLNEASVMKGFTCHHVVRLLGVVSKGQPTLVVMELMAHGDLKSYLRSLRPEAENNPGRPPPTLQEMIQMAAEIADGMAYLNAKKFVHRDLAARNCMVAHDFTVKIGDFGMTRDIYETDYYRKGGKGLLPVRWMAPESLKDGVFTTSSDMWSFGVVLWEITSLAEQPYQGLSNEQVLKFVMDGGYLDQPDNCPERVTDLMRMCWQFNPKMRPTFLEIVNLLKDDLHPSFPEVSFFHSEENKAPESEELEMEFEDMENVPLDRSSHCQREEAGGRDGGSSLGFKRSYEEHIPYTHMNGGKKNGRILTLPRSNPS
T25 sequence (Q13164 whole entry): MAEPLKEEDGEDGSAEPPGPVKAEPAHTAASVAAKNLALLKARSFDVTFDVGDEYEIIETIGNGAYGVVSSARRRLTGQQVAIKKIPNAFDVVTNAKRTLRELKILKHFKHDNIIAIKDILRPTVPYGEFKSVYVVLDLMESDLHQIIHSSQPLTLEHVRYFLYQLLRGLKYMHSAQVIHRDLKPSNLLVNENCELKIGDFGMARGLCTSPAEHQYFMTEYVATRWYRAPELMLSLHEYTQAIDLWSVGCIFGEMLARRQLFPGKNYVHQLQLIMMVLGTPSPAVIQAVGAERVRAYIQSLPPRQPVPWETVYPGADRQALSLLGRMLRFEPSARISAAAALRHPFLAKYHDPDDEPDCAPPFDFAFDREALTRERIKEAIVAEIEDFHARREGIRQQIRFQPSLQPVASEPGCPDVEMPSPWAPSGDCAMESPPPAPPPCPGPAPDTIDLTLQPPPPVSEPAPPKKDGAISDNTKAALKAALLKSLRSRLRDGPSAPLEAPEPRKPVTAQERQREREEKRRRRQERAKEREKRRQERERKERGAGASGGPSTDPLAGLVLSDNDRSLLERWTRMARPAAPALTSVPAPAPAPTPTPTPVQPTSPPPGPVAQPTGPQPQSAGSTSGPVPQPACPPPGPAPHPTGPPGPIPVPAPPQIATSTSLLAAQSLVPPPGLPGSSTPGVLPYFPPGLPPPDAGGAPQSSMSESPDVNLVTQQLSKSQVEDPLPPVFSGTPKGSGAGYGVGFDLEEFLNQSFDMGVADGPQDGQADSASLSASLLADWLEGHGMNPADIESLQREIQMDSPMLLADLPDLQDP
T33 sequence (Q8NG66 whole entry): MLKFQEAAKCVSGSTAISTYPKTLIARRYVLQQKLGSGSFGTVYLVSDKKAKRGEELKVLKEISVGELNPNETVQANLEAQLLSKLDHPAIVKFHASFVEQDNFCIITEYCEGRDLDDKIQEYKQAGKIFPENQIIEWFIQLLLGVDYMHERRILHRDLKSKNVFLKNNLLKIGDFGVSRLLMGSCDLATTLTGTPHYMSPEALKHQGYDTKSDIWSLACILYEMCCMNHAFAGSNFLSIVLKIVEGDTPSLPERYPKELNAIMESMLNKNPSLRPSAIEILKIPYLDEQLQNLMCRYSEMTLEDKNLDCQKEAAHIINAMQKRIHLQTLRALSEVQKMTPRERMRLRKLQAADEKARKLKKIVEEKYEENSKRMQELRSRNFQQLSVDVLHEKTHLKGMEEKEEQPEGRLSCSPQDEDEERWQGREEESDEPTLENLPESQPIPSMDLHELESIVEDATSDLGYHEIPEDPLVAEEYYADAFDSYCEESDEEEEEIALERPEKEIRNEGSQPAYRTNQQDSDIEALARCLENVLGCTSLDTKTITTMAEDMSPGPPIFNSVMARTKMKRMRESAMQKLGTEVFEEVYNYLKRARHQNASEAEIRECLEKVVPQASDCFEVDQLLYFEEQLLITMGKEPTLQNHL
T15 sequence (Q15759 whole entry): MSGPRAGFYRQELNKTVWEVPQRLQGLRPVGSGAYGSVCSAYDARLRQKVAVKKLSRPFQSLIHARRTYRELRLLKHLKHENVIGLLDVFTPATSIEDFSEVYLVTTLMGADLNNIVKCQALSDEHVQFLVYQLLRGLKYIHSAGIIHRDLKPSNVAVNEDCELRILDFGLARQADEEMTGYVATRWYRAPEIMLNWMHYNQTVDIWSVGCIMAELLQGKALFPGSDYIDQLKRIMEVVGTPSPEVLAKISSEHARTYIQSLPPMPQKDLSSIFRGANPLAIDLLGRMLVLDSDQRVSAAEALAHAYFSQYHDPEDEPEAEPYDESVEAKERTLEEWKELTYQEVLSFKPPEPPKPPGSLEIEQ
T26 sequence (O75676 1-371 limits assumed): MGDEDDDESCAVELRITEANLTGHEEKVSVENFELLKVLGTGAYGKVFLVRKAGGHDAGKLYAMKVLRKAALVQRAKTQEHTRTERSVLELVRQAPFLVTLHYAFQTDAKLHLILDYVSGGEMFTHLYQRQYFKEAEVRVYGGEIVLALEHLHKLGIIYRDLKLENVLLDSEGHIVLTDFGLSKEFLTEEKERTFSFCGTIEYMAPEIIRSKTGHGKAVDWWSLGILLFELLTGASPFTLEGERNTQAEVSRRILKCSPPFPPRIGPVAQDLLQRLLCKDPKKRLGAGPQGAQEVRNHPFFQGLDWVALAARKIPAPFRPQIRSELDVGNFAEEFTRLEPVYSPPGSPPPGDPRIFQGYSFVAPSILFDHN
T5 sequence (Q6P2M8 whole entry): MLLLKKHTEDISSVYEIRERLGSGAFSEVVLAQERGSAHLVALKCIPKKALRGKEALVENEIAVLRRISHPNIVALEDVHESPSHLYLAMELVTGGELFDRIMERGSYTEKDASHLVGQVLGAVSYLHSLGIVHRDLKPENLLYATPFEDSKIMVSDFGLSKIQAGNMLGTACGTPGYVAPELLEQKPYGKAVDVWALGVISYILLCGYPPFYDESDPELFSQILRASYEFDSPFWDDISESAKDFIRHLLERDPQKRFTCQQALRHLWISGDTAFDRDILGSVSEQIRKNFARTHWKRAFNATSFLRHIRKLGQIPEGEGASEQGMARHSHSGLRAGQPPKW

**Q.** Which remaining binding at 1 µM [1] does the source give for `O=C(O)c1ccc(-c2coc3ncc(-c4ccccc4)cc23)cc1Cl` [SGC-CAMKK2-1N (UNC-YL-83)] here?
**A.** 78%

**Q.** What about the remaining binding at 1 µM [2] of the same compound?
**A.** 90%

**Q.** What about the remaining binding at 1 µM [3] of the same compound?
**A.** 100%

**Q.** What about the remaining binding at 1 µM [4] of the same compound?
**A.** 88%

**Q.** What about the remaining binding at 1 µM [5] of the same compound?
**A.** 61%

**Q.** What about the remaining binding at 1 µM [6] of the same compound?
**A.** 100%

**Q.** And the remaining binding at 1 µM [7]?
**A.** 77%

**Q.** And the remaining binding at 1 µM [8]?
**A.** 100%

**Q.** And the remaining binding at 1 µM [9]?
**A.** 94%

**Q.** And the remaining binding at 1 µM [10]?
**A.** 67%

**Q.** What about the remaining binding at 1 µM [11] of the same compound?
**A.** 81%

**Q.** What about the remaining binding at 1 µM [12] of the same compound?
**A.** 95%

**Q.** And the remaining binding at 1 µM [13]?
**A.** 90%

**Q.** And the remaining binding at 1 µM [14]?
**A.** 97%

**Q.** And the remaining binding at 1 µM [15]?
**A.** 100%

**Q.** Which results are given for `Cc1cccc(-c2cnc3occ(-c4ccc(C(=O)O)c(C5CCCC5)c4)c3c2)c1` [SGC-CAMKK2-1 (YL-36)]?
**A.** remaining binding at 1 µM [16]: 100%; remaining binding at 1 µM [17]: 85%; remaining binding at 1 µM [18]: 93%; remaining binding at 1 µM [19]: 99%; remaining binding at 1 µM [20]: 100%; remaining binding at 1 µM [21]: 85%; remaining binding at 1 µM [22]: 64%; remaining binding at 1 µM [23]: 100%; remaining binding at 1 µM [24]: 100%; remaining binding at 1 µM [25]: 100%; remaining binding at 1 µM [26]: 100%; remaining binding at 1 µM [27]: 100%; remaining binding at 1 µM [28]: 77%; remaining binding at 1 µM [29]: 100%; remaining binding at 1 µM [30]: 81%; remaining binding at 1 µM [31]: 100%; remaining binding at 1 µM [32]: 87%; remaining binding at 1 µM [33]: 100%
